In patent publication US20030229004A1, “Modulation of tumor cells using BER inhibitors in combination with a sensitizing agent and DSBR inhibitors” (Pangene Corporation, priority 2002, published 2003):
Where two headings read alike, the source gives them in different places.

Tests used:
[1] = system: A2780/cp70 cells; assay: Clonogenic survival in A2780/cp70 (MMR-deficient) ovary carcinoma cells; format: cell-based, human
Method: (§1) FIG. 1. Effect of Methoxyamine (MX) on cytotoxicity induced by IUDR in human A2780/cp70 (MMR-deficient) and […]) ovary carcinoma cell lines. Cells were treated for 48 hours with IUDR alone or with IUDR and 6 mM Methoxyamine. Surviving colonies were counted in triplicate 7-10 days after treatment. Error bars, Standard Error. FIG. 5. Effect of Methoxyamine (MX) on cytotoxicity induced by FaraA in human A2780/cp70 (MMR-deficient) and […]) ovary carcinoma cell lines. Cells were treated for 48 hours with FaraA alone or with FaraA and 6 mM Methoxyamine. Surviving colonies were counted in triplicate 7-10 days after treatment. Error bars, Standard Error. For clonogenic survival studies in A2780/cp70 and […], exponentially growing cells were similarly diluted and plated in complete RPMI 1640 medium (+400 μg/ml Hygromycin in […]). […] IUDR-containing medium was then removed in cell populations, cultures were washed with PBS and incubated at 37° C. for 7-10 days in tissue culture medium containing 10% defined FBS (+dThd). Cell populations were treated simultaneously with IUDR and 6 mM Methoxyamine (MX) (Sigma, St Louis, Mo.) for 48 hours; plates were then washed with PBS and surviving colonies were counted after incubation at 37° C. in drug-free medium for 7-10 days.

[2] = system: HCT116 cells; assay: Clonogenic survival in HCT116 (MMR-deficient) colon carcinoma cells; format: cell-based, human
Method: (§2) FIG. 2. […] Cells were treated for 48 hours with IUDR alone (closed symbols) or with IUDR and 6 mM Methoxyamine (open symbols). Surviving colonies were counted in triplicate 7-10 days after treatment. Error bars, Standard Error. FIG. 4. […] Cells were treated for 24 hours with FaraA alone or with FaraA and 6 mM Methoxyamine. Surviving colonies were counted in triplicate 7-10 days after treatment. Error bars, Standard Error. The human colon cancer cell line HCT116 lacks MLH1 expression and their MMR positive subline (HCT116/chr 3-6) has hMLH1 reintroduced by chromosome 3 transfer. For clonogenic survival studies in HCT116 and HCT116/3-6 cells, exponentially growing cells were similarly diluted and plated in complete D-MEM medium (+400 μg/ml G418 in HCT116/3-6 cells). […] IUDR-containing medium was then removed in HCT116 cell populations, cultures were washed with PBS and incubated at 37° C. for 7-10 days in tissue culture medium containing 10% defined FBS (+dThd). HCT116 cell populations were treated simultaneously with IUDR and 6 mM Methoxyamine (MX) (Sigma, St Louis, Mo.) for 48 hours; plates were then washed with PBS and surviving colonies were counted after incubation at 37° C. in drug-free medium for 7-10 days.

[3] = system: HCT116/3-6 cells; assay: Clonogenic survival in HCT116/3-6 (MMR-proficient) colon carcinoma cells; format: cell-based, human; conditions: for IC50: Homo sapiens, HCT-116, 24 hours
Method: as §2

[4] = system: EM9 cells; assay: FaraA cytotoxicity in XRCC1 mutant EM9 CHO cells; format: cell-based
Method: (§3) FIG. 3. Effect of Methoxyamine (MX) on cytotoxicity induced by FaraA in CHO cells proficient or deficient in Xrcc1 protein. Cells were treated for 24 hours with FaraA alone or with FaraA and 6 mM Methoxyamine. Surviving colonies were counted in triplicate 7-10 days after treatment and the experiment was repeated three times. Error bars, Standard Error.
(§4) AA8 and EM9 cells were obtained from the American Tissue Culture Collection (Manassas, Va.). H9T3 cells were a gift of Dr. L. H. Thompson (Lawrence Livermore National Laboratory, Livermore, Calif.). The parental CHO line clone AA8 was isolated as being heterozygous at the aprt locus; the mutant EM9 clone was isolated from AA8 cells following mutagenesis with EMS and carry a frameshift mutation in the XRCC1 gene resulting in a truncated polypeptide lacking two thirds of the normal sequence. […] H9T3-7-1 cells (referred in the text as H9T3) were derived from EM9 following transfection with a cosmid containing XRCC1 cDNA which corrects the DNA repair defect of EM9.
(§5) We tested whether MX, a small molecule known to be BER inhibitor, could sensitize CHO cells to FaraA cytotoxicity.

[5] = Plasma levels of IPDR in athymic mice; format: in vivo; conditions: 250 mg/kg ip; samples 0-350 min; athymic mice with U87 MG tumors
Method: Athymic mice are treated with MX-IPDR or IPDR. Tumor fragment of about 2×2×2 mm derived from Human U87 MG Glioma Cells are implanted s.c. into the axilliary region of the mice. The mice are then treated ip with MX-IPDR at 250 mg/kg or IPDR at 250 mg/kg and samples taken at 0, 2, 5, 15, 45, 75, 120, 150, 210 and 350 min after treatment. The IPDR plasma levels are determined as previously reported by Kinsella et al. {Kinsella, 2000 #121}.

[6] = daily p.o. dosing of IPDR for 6 or 14 days; nude mice; cited from earlier work
[7] = system: human colon and brain cancer xenograft models; conditions: daily p.o. dosing of IPDR for 6 or 14 days; human colon and brain cancer xenografts; cited from earlier work
[8] = system: A2780/cp70+chr3 cells; assay: Clonogenic survival in A2780/cp70+chr3 (MMR-proficient) ovary carcinoma cells; format: cell-based, human
Method: as §1

[9] = system: HCT116 cells; assay: Clonogenic survival of HCT116 with poly IUDR and IUDR (Example 8); format: cell-based, human; conditions: 1, 3, 10 μM for 48 hours
Method: Human colon cells (HCT 116) are treated with poly IUDR, an oligonucleotide comprised of IUDR, and IUDR. For clonogenic survival studies in HCT116, exponentially growing cells are similarly diluted and plated in complete D-MEM medium (+400 μg/ml G418 in HCT116/3-6 cells). Poly IUDR and IUDR treatment (1, 3, 10 μM) in HCT116 is for 48 hours in D-MEM (-G418) medium containing 10% dialyzed FBS, and the drug-containing medium is replaced after the initial 24 hours. Compound-containing medium is then removed from the HCT116 cell cultures, the cultures are washed with PBS, and incubated at 37° C. for 7-10 days in tissue culture medium containing 10% defined FBS (+dThd). Surviving colonies are counted after incubation at 37° C. in drug-free medium for 7-10 days.

[10] = system: AA8 cells; assay: FaraA cytotoxicity in wild type AA8 CHO cells; format: cell-based; conditions: 6 mM MX
Method: as §3, §4, §5

[11] = system: H9T3 cells; assay: FaraA cytotoxicity in XRCC1 reconstituted H9T3 CHO cells; format: cell-based; conditions: 6 mM MX
Method: as §3, §4, §5

[12] = system: Human MDA-MB-231 breast cancer cells; assay: MDA-MB-231 breast cancer xenografts in athymic mice, with Doxorubicin; format: in vivo; conditions: MDA-MB-231 xenograft; i.p. days 1-5, 3 cycles; all mice also Doxorubicin 1.5 mg/kg day 4; measured at day 49
Method: FIG. 6. Effect of Rad51 antisense on tumor growth delay induced by Doxorubicin on Human MDA-MB-231 Breast cancer cells grown as xenografts in Athymic Mice. The mice were treated i.p. with Rad51 antisense at 5 mg/kg on days 1 through 5, MX at 2 mg/kg on days 1 through 5, and with Doxorubicin at 1.5 mg/kg on day 4. The cycle was repeated three times with a two-day rest period between cycles.
(§6) Athymic mice are treated with Rad51 antisense alone, MX alone, and Rad51 antisense in combination with MX. All mice are also treated with Doxorubicin. Tumor fragment of about 2×2×2 mm derived from Human MDA-MB-231 breast cancer cells Athymic mice are implanted s.c. into the axilliary region of the mice. The mice are treated i.p. with Rad51 antisense at 5 mg/kg on days 1 through 5, MX at 2 mg/kg on days 1 through 5, and Doxorubicin at 1.5 mg/kg on day 4. The cycle is repeated three times with a two-day rest period between cycles. The animals are euthanatized 49 days after the beginning of the experiment, and the tumor size is measured by calipers.

[13] = system: Human U87 MG glioma cells; assay: U87 MG glioma xenografts in athymic mice, with IPDR; format: in vivo; conditions: U87 MG xenograft; i.p. days 1-5, 3 cycles; all mice also IPDR 250 mg/kg day 4; measured at day 49
Method: as §6, with “IPDR.” for “Doxorubicin.”, “U87 MG glioma” for “MDA-MB-231 breast cancer”, “cells” for “cells Athymic mice”, “IPDR” for “Doxorubicin”, “250” for “1.5”

[14] = system: wild type and Polβ-complemented mouse fibroblasts; conditions: cited from earlier work
[15] = IUDR 48 hours, colonies counted after 7-10 days, read-out: IC50 for IUDR alone

Question: With Nc1nc(F)nc2c1ncn2[C@@H]1O[C@H](CO)[C@@H](O)[C@@H]1O [FaraA, Fludarabine] as the compound, how does the IC50 ([1]; Homo sapiens, FaraA + 6 mM MX, 48 hours, read-out: IC50 for FaraA with 6 mM MX) read?
Answer: Its IC50 is 4 µM.

Question: And the IC50 ([1]; Homo sapiens, FaraA alone, 48 hours, read-out: IC50 for FaraA alone)?
Answer: The IC50 was 11 µM.

Question: And the IC50 ([2]; Homo sapiens, HCT-116, FaraA + 6 mM MX, 24 hours, read-out: IC50 for FaraA with 6 mM MX)?
Answer: The IC50 was 3 µM.

Question: What about the IC50 ([2]; Homo sapiens, HCT-116, FaraA alone, 24 hours, read-out: IC50 for FaraA treatment) of the same compound?
Answer: Its IC50 is 9 µM.

Question: And the IC50 ([3]; HCT116/3-6 cells, FaraA + 6 mM MX, read-out: IC50 for FaraA in the presence of 6 mM MX)?
Answer: The IC50 was 3 µM.

Question: And the IC50 ([3]; HCT116/3-6 cells, FaraA alone, read-out: IC50 for FaraA)?
Answer: The IC50 was 5 µM.

Question: What about the IC50 ([4]; Cricetulus griseus, CHO, XRCC1 mutant EM9 cells, FaraA alone, 24 hours) of the same compound?
Answer: Its IC50 is 7.5 µM.

Question: With O=c1ncc(I)cn1[C@H]1C[C@H](O)[C@@H](CO)O1 [IPDR, 5-iodo-2-pyrimidinone-2′-deoxyribose] as the compound, how does the “Plasma IPDR levels required to act as a radiosensitizer” value [5] read?
Answer: Its value is “acceptable level”.

Question: And the Systemic toxicity [6]?
Answer: The Systemic toxicity was “no significant systemic toxicity”.

Question: What about the Tumor radiosensitization [7] of the same compound?
Answer: Its Tumor radiosensitization is “significant radiosensitization”.

Question: For O=c1[nH]c(=O)n([C@H]2C[C@H](O)[C@@H](CO)O2)cc1I [IUDR, IodoUridineDeoxyRibose], which IC50 [1, 15] is on record?
Answer: The IC50 was 8 µM.

Question: And the IC50 ([1]; IUDR + 6 mM MX for 48 hours, read-out: IC50 for IUDR with MX treatment)?
Answer: The IC50 was 1 µM.

Question: And the “Response to IUDR alone and to MX+IUDR compared with A2780/cp70” value ([8]; MMR positive subline A2780/cp70 chr3)?
Answer: The value was “qualitatively similar”.

Question: And the IC50 [2, 15]?
Answer: The IC50 was 4.5 µM.

Question: What about the IC50 ([2]; IUDR + MX for 48 hours (method 6 mM MX, result sentence 12 mM MX), read-out: IC50 for IUDR with MX treatment) of the same compound?
Answer: The IC50 was 0.5 µM.

Question: What about the “Response to IUDR alone and to MX+IUDR compared with HCT116” value ([3]; MMR positive subline HCT116/chr3-6) of the same compound?
Answer: Its value is “qualitatively similar”.

Question: What about the “Cytotoxicity in clonogenic survival” value [9] of the same compound?
Answer: Its value is “greatly sensitized”.

Question: With CON [MX, Methoxyamine] as the compound, how does the “Sensitization to IUDR-induced cytotoxicity by MX” value ([1]; 6 mM MX, 48 hours) read?
Answer: The value was “greatly sensitized”.

Question: And the “Sensitization to IUDR-induced cytotoxicity by MX” value ([8]; cp70/ch3 cells, 6 mM MX, 48 hours)?
Answer: Its value is “greatly sensitized”.

Question: What about the “Sensitization to IUDR-induced cytotoxicity by MX” value ([2]; 12 mM MX as printed) of the same compound?
Answer: Its value is “greatly sensitized”.

Question: And the “Sensitization to IUDR-induced cytotoxicity by MX” value ([3]; HCT116/3-6 cells, 12 mM MX as printed)?
Answer: The value was “greatly sensitized”.

Question: And the “Sensitization to FaraA by MX” value ([4]; EM9 cells, 6 mM MX)?
Answer: Its value is “further sensitized”.

Question: What about the “Sensitization to FaraA by MX” value [10] of the same compound?
Answer: The value was “significantly sensitized”.

Question: And the “Sensitization to FaraA by MX” value [11]?
Answer: The value was “significantly sensitized”.

Question: What about the “Tumor size and tumor cell killing” value [12] of the same compound?
Answer: Its value is “Reduction in tumor size and tumor cell killing”.

Question: And the “Tumor size and tumor cell killing” value [13]?
Answer: The value was “Reduction in tumor size and tumor cell killing”.

Question: What about the “Sensitization to the cytotoxicity of Ganciclovir” value [14] of the same compound?
Answer: Its value is “sensitized”.
